Measurements: ChEMBL document CHEMBL1135755, “SAR by MS: a ligand based technique for drug lead discovery against structured RNA targets” (J Med Chem, 2002)

Assays:
[1] = Dissociation constant was determined; type: physicochemical
Nucleic Acid = assay: Inhibitory activity against RNA target using functional assay

Kd [1]: 6.5 µM
IC50 (Nucleic Acid): 14 µM
SMILES: NCC[C@@H](NC(=O)c1ccc(-c2cccc(NC(=O)c3ccc4nc(O)c(O)nc4c3)c2)o1)C(=O)N1CCNCC1
